Reference: ChEMBL document CHEMBL6120985, “Discovery of a potent PARP1 PROTAC as a chemosensitizer for the treatment of colorectal cancer” (Eur J Med Chem, 2025)
The source made the active and inactive calls. No cut-off for these calls is given here.

How the values were obtained:
[1] = Cytotoxicity against HEK293T cells assessed as inhibition of cell growth measured after 72 hrs by CCK-8 method; assay type: toxicity, cell-based, HEK-293T; settings: human
[2] = target: Protein cereblon/Poly [ADP-ribose] polymerase 2 (Homo sapiens, UniProt Q9UGN5+Q96SW2); assay: PROTAC activity at CRBN/PARP2 in human HCT-116 cells assessed as degradation of PARP2; assay type: cell-based
HCT-116 [3] = assay: Synergistic antiproliferative activity against human HCT-116 cells assessed as combination index at 2 uM measured after 72 hrs in presence of 5 nM of SN-38 by CCK-8 method; assay type: functional
HCT-116 [4] = assay: Downregulation of CDC25 level in human HCT-116 cells at 1 uM in presence of SN-38 by KEGG enrichment analysis; assay type: functional, cell-based
HCT-116 [5] = assay: Synergistic antiproliferative activity against human HCT-116 cells assessed as combination index at 4 uM measured after 72 hrs in presence of 1.25 nM of SN-38 by CCK-8 method; assay type: functional
HCT-116 [6] = assay: Effect on p53 protein level in human HCT-116 cells at 1 uM in presence of SN-38 by Western blot analysis; assay type: functional, cell-based
HCT-116 [7] = assay: Induction of apoptosis in human HCT-116 cells assessed as viable cells at 1 uM measured after 72 hrs by annexin V/FITC and PI staining based flow cytometry analysis (reference value: 89.6%); assay type: functional; settings: read-out: Activity
HCT-116 [8] = assay: Induction of apoptosis in human HCT-116 cells assessed as viable cells at 1 uM measured after 72 hrs in presence of SN-38 by annexin V/FITC and PI staining based flow cytometry analysis (reference value: 89.6%); assay type: functional; settings: read-out: Activity
[9] = Potency index, ratio of SK-575 IC50 to test compound IC50 for cytotoxicity against human LoVo cells assessed as inhibition of cell growth measured after 72 hrs by CCK-8 method; assay type: functional
HCT-116 [10] = assay: Induction of apoptosis in human HCT-116 cells assessed as early apoptotic cells at 1 uM measured after 72 hrs in presence of SN-38 by annexin V/FITC and PI staining based flow cytometry analysis (reference value: 3.43%); assay type: functional
HCT-116 [11] = assay: Downregulation of KRT1 level in human HCT-116 cells at 1 uM in presence of SN-38 by KEGG enrichment analysis; assay type: functional, cell-based
[12] = target: T1, Protein cereblon/Poly [ADP-ribose] polymerase 1 (Homo sapiens, UniProt P09874+Q96SW2); assay: PROTAC activity at CRBN/PARP1 in human HCT-116 cells assessed as degradation of PARP1 at upto 10 uM measured after 24 hrs relative to control; assay type: cell-based
Target sequence in this assay (P09874 2-1014 limits assumed): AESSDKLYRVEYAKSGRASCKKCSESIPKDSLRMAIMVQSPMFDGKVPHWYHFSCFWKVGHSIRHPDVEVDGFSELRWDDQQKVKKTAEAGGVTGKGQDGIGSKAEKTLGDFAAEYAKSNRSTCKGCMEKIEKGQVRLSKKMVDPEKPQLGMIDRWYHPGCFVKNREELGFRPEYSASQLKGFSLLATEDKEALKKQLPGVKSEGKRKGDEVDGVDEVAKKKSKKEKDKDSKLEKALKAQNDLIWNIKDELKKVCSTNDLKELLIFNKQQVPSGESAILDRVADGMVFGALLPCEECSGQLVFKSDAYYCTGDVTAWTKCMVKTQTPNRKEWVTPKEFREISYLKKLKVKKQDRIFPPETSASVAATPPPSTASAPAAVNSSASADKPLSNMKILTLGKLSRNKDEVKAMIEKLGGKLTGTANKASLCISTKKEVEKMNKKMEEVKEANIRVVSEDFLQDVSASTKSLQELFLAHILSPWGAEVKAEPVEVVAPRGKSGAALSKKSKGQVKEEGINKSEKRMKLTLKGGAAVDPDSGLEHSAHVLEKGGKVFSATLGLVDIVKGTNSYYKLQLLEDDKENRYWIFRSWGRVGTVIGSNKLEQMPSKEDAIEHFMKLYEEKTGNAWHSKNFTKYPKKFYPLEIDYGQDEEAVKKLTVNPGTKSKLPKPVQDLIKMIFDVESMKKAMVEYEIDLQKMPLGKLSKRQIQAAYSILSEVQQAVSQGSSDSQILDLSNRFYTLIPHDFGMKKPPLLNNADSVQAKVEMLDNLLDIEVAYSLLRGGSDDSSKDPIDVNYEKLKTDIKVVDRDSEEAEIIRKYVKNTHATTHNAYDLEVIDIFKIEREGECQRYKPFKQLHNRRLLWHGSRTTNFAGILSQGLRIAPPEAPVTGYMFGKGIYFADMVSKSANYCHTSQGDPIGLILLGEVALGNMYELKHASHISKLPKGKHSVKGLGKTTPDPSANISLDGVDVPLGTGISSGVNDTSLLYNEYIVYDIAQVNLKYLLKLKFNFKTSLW
Target sequence in this assay (Q96SW2 whole entry partner): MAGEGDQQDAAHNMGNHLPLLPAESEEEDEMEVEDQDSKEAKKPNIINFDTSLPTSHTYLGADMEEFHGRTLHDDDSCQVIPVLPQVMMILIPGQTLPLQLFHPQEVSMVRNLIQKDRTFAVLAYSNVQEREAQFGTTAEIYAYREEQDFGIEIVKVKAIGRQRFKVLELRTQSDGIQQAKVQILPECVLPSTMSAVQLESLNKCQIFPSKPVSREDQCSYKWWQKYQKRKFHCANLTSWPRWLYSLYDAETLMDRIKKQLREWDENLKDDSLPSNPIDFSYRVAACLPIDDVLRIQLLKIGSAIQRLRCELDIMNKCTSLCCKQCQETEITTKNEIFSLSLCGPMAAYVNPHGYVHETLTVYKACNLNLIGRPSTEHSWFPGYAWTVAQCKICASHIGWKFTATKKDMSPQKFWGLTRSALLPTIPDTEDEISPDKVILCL

HCT-116 [13] = assay: Effect on DNA-PKcs protein level in human HCT-116 cells at 1 uM in presence of SN-38 by Western blot analysis; assay type: functional, cell-based
HCT-116 [14] = assay: Synergistic antiproliferative activity against human HCT-116 cells assessed as combination index at 2 uM measured after 72 hrs in presence of 2.5 nM of SN-38 by CCK-8 method; assay type: functional
[15] = Cytotoxicity against human BEAS-2B cells assessed as inhibition of cell growth measured after 72 hrs by CCK-8 method; assay type: toxicity, cell-based
HCT-116 [16] = assay: Upregulation of CDK1 level in human HCT-116 cells at 1 uM in presence of SN-38 by Western blot analysis; assay type: functional, cell-based
[17] = target: T1, Protein cereblon/Poly [ADP-ribose] polymerase 1; assay: PROTAC activity at CRBN/PARP1 in human RKO cells assessed as degradation of PARP1 at upto 10 uM measured after 24 hrs relative to control; assay type: cell-based
Target sequence in this assay (P09874 2-1014 limits assumed): as the sequence (P09874 2-1014 limits assumed) above
Target sequence in this assay (Q96SW2 whole entry partner): as the sequence (Q96SW2 whole entry partner) above

HCT-116 [18] = assay: Downregulation of […] level in human HCT-116 cells at 1 uM in presence of SN-38 by Western blot analysis; assay type: functional, cell-based
HCT-116 [19] = assay: Induction of apoptosis in human HCT-116 cells assessed as necrotic cells at 1 uM measured after 72 hrs in presence of SN-38 by annexin V/FITC and PI staining based flow cytometry analysis (reference value: 0.16%); assay type: functional
[20] = target: T1, Protein cereblon/Poly [ADP-ribose] polymerase 1; assay: PROTAC activity at CRBN/PARP1 in human HCT-116 cells assessed as degradation of PARP1 measured after 24 hrs; assay type: cell-based
Target sequence in this assay (P09874 whole entry): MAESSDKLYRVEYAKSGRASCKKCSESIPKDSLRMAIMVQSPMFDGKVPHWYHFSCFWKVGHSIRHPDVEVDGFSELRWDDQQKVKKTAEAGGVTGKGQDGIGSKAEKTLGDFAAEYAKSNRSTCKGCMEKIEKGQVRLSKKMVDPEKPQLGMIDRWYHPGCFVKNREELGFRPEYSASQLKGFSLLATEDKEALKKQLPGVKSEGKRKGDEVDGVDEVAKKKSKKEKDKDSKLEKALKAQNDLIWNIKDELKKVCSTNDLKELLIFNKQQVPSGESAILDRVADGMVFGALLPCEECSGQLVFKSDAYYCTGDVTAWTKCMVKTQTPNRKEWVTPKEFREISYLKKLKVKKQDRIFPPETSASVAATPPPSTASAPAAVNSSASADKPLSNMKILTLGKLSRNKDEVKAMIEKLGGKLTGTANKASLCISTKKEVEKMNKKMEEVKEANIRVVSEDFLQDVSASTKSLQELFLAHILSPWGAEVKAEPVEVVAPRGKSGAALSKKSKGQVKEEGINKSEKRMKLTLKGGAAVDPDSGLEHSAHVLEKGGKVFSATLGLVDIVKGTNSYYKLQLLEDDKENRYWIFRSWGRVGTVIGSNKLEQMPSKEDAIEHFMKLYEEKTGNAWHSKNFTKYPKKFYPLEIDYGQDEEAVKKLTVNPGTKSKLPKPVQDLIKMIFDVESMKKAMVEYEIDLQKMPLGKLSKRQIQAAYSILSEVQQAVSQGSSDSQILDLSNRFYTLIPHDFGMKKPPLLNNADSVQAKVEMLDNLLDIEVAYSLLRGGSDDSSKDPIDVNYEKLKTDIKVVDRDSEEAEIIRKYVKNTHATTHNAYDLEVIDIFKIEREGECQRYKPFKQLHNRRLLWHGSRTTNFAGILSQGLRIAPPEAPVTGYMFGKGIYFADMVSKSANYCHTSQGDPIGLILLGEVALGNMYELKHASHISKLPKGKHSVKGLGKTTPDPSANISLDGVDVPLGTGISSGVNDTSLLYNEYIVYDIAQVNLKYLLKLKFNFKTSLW
Target sequence in this assay (Q96SW2 whole entry): as the sequence (Q96SW2 whole entry partner) above

HCT-116 [21] = assay: Synergistic antiproliferative activity against human HCT-116 cells assessed as combination index at 1 uM measured after 72 hrs in presence of 1.25 nM of SN-38 by CCK-8 method; assay type: functional
HCT-116 [22] = assay: Effect on BRCA protein level in human HCT-116 cells at 1 uM in presence of SN-38 by Western blot analysis; assay type: functional, cell-based
HCT-116 [23] = assay: Induction of apoptosis in human HCT-116 cells assessed as early apoptotic cells at 1 uM measured after 72 hrs by annexin V/FITC and PI staining based flow cytometry analysis (reference value: 3.43%); assay type: functional
HCT-116 [24] = assay: Synergistic antiproliferative activity against human HCT-116 cells assessed as combination index at 4 uM measured after 72 hrs in presence of 0.625 nM of SN-38 by CCK-8 method; assay type: functional
HCT-116 [25] = assay: Synergistic antiproliferative activity against human HCT-116 cells assessed as combination index at 4 uM measured after 72 hrs in presence of 5 nM of SN-38 by CCK-8 method; assay type: functional
SW-620 [26] = assay: Cytotoxicity against human SW620 cells assessed as inhibition of cell growth measured after 72 hrs by CCK-8 method; assay type: functional, cell-based; settings: SW-620, 72 h
HCT-116 [27] = assay: Synergistic antiproliferative activity against human HCT-116 cells assessed as combination index at 1 uM measured after 72 hrs in presence of 10 nM of SN-38 by CCK-8 method; assay type: functional
LoVo = assay: Cytotoxicity against human LoVo cells assessed as inhibition of cell growth measured after 72 hrs by CCK-8 method; assay type: functional, cell-based
HCT-116 [28] = assay: Effect on BRCA level in human HCT-116 cells at 1 uM in presence of SN-38 by Western blot analysis; assay type: functional, cell-based
[29] = target: T1, Protein cereblon/Poly [ADP-ribose] polymerase 1; assay: PROTAC activity at CRBN/PARP1 in human HCT-116 cells assessed as degradation of PARP1; assay type: cell-based
Target sequence in this assay (P09874 whole entry): as the sequence (P09874 whole entry) above
Target sequence in this assay (Q96SW2 whole entry): as the sequence (Q96SW2 whole entry partner) above

HCT-116 [30] = assay: Induction of apoptosis in human HCT-116 cells assessed as late apoptotic cells at 1 uM measured after 72 hrs by annexin V/FITC and PI staining based flow cytometry analysis (reference value: 6.80%); assay type: functional
[31] = target: T1, Protein cereblon/Poly [ADP-ribose] polymerase 1; assay: PROTAC activity at CRBN/PARP1 in human HCT-116 cells assessed as degradation of PARP1 at 1 uM in presence of thalidomide; assay type: cell-based
Target sequence in this assay (P09874 2-1014 limits assumed): as the sequence (P09874 2-1014 limits assumed) above
Target sequence in this assay (Q96SW2 whole entry partner): as the sequence (Q96SW2 whole entry partner) above

HCT-116 [32] = assay: Antagonistic antiproliferative activity against human HCT-116 cells assessed as combination index at 2 uM measured after 72 hrs in presence of 0.625 nM of SN-38 by CCK-8 method; assay type: functional
SW-620 [33] = assay: Potency index, ratio of SK-575 IC50 to test compound IC50 for cytotoxicity against human SW620 cells assessed as inhibition of cell growth measured after 72 hrs by CCK-8 method; assay type: functional
HCT-116 [34] = assay: Induction of cell cycle arrest in human HCT-116 cells assessed as accumulation of cells at G2/M phase at 1 uM measured after 72 hrs in presence of SN-38 by PI staining based flow cytometry analysis; assay type: functional
HCT-116 [35] = assay: Synergistic antiproliferative activity against human HCT-116 cells assessed as combination index at 2 uM measured after 72 hrs in presence of 10 nM of SN-38 by CCK-8 method; assay type: functional

Sequence of Protein cereblon/Poly [ADP-ribose] polymerase 2 (Q9UGN5 whole entry): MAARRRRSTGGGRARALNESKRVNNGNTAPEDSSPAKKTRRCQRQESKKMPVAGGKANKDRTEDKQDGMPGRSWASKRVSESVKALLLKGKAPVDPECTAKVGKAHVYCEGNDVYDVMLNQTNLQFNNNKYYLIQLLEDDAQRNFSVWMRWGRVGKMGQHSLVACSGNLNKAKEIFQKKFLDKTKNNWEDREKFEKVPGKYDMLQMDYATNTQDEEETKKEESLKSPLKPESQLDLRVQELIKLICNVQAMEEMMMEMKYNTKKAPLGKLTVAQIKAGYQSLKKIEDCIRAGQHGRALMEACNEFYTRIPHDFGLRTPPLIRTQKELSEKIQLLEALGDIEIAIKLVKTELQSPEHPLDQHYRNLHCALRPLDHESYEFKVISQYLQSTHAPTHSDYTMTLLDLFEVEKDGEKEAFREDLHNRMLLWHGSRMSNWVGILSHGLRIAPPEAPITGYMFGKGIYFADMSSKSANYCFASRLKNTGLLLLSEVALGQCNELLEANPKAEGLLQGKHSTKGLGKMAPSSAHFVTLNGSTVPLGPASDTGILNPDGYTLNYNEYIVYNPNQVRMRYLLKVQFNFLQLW
Sequence of Protein cereblon/Poly [ADP-ribose] polymerase 2 (Q96SW2 whole entry): as the sequence (Q96SW2 whole entry partner) above

Structure (SMILES): NC(=O)c1cccc2cn(-c3ccc([C@@H]4CCCN(CCC5CCN(CCC6CCN(CC7CCN(c8ccc9c(c8)C(=O)N(C8CCC(=O)NC8=O)C9=O)CC7)CC6)CC5)C4)cc3)nc12 (stereo partly specified)
- IC50 at 72 h [1]: 4130 nM
- DC50 [2]: 19100 nM
- CI (HCT-116 [3]): 0.752
- Activity (HCT-116 [4]): Active
- CI (HCT-116 [5]): 0.574
- Activity (HCT-116 [6]): inactive
- viability at 1 µM (HCT-116 [7]): 83.6%
- viability at 1 µM (HCT-116 [8]): 58.2%
- Ratio IC50 [9]: <3.5
- Activity (HCT-116 [10]): 11.9%
- Activity (HCT-116 [11]): Active
- Emax [12]: 96.5%
- Activity (HCT-116 [13]): inactive
- CI (HCT-116 [14]): 0.856
- IC50 at 72 h [15]: 8290 nM
- Activity (HCT-116 [16]): Active
- Emax [17]: 95.9%
- Activity (HCT-116 [18]): Active
- Activity (HCT-116 [19]): 10.2%
- DC50 [20]: 58.1 nM
- CI (HCT-116 [21]): 0.969
- Activity (HCT-116 [22]): inactive
- Activity (HCT-116 [23]): 4.03%
- CI (HCT-116 [24]): 0.567
- CI (HCT-116 [25]): 0.457
- IC50 (SW-620 [26]): 1630 nM
- CI (HCT-116 [27]): 0.698
- IC50 (LoVo): 2840 nM
- Activity (HCT-116 [28]): inactive
- DC50 [29]: 30 nM
- Activity (HCT-116 [30]): 10.4%
- Activity [31]: inactive
- CI (HCT-116 [32]): 1.241
- Ratio IC50 (SW-620 [33]): <6
- Activity (HCT-116 [34]): Active
- CI (HCT-116 [35]): 0.766
